According to patent publication US20110092544A1, “FUNGICIDAL PYRIDINES” (E.I. DU PONT DE nemours and company, priority 2008, published 2011):

Legend:
Type in all cases: in vivo
[1] = tested on: Erysiphe graminis f. sp. tritici; assay: Test A: wheat powdery mildew, preventive spray on wheat seedlings, visual disease rating; conditions: for pest or weed control at 200 ppm: Blumeria graminis, 192 h
Procedure, shortened: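 Acetone/water (50/50) suspension with 250 ppm surfactant sprayed to run-off on wheat seedlings (200 ppm ≈ 500 g/ha); inoculated next day with E. graminis spore dust. Incubated 8 days at 20° C, then visually rated 0–100% disease control versus untreated controls; tests at 200 ppm or 40 ppm.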

[2] = tested on: Puccinia recondite f. sp. tritici; assay: Test B: wheat leaf rust, preventive spray on wheat seedlings, visual disease rating; conditions: for pest or weed control at 200 ppm: 192 h
Procedure, shortened: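 Wheat seedlings were sprayed to run-off with compound suspension, 200 ppm (≈500 g/ha) or 40 ppm where marked, containing surfactant in acetone/water. Inoculation with Puccinia recondita spores followed one day later, then 24 h in saturated humidity at 20° C and 7 days at 20° C. Disease control was rated visually, 0–100% versus controls.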

Septoria tritici = assay: Test C: wheat leaf blotch, preventive spray on wheat seedlings, visual disease rating; conditions: for pest or weed control at 200 ppm: Zymoseptoria tritici, 504 h
Procedure, shortened: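 Wheat seedlings sprayed to run-off with compound in acetone/water plus 250 ppm surfactant at 200 ppm (≈500 g/ha), or 40 ppm where marked; inoculated with Septoria tritici next day. Held saturated at 20 °C for 48 h, then 19 days at 20 °C; disease control rated visually 0–100 versus controls.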

Septoria nodorum = assay: Test D: wheat glume blotch, preventive spray on wheat seedlings, visual disease rating; conditions: for pest or weed control at 200 ppm: Parastagonospora nodorum, 216 h
Procedure, shortened: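 Compounds in 3% acetone, then 50/50 acetone–water with 250 ppm Trem 014, sprayed to run-off at 200 ppm (500 g/ha; some at 40 ppm) one day before spore inoculation. Held 48 h saturated at 20 °C, then 7 days at 20 °C; visual rating as % disease control vs untreated (0–100).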

Alternaria solani = assay: Test E: tomato early blight, preventive spray on tomato seedlings, visual disease rating; conditions: for pest or weed control at 200 ppm: Alternaria solani, 168 h
Procedure, shortened: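 Seedlings sprayed to run-off with compound in acetone/water plus 250 ppm Trem 014 (200 ppm ≈ 500 g/ha), inoculated with spores next day. Held 48 h saturated at 27 °C, then 5 days at 20 °C; visual rating 0–100% disease control relative to controls.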

Botrytis cinerea = assay: Test F: tomato botrytis, preventive spray on tomato seedlings, visual disease rating; conditions: for pest or weed control at 200 ppm: Botrytis cinerea, 120 h
Procedure, shortened: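 Tomato seedlings sprayed to run-off with compound suspended in acetone/water (50/50) plus 250 ppm Trem 014, at 200 ppm (≈500 g/ha) or 40 ppm where marked. Inoculated next day with B. cinerea spores, 48 h saturated atmosphere at 20 °C, then 3 days at 24 °C. Visual rating, 0–100% disease control relative to controls.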

Rhizoctonia oryzae = assay: Test G: turf brown patch, preventive spray on creeping bent grass seedlings, visual disease rating; conditions: for pest or weed control at 200 ppm: Waitea circinata, in Agrostis stolonifera, 120 h
Text: (§1) General protocol for preparing test suspensions for Tests A-H: The test compounds were first dissolved in acetone in an amount equal to 3% of the final volume and then suspended at the desired concentration (in ppm) in acetone and purified water (50/50 mix) containing 250 ppm of the surfactant Trem® 014 (polyhydric alcohol esters). The resulting test suspensions were then used in tests A-H. Spraying a 200 ppm test suspension to the point of run-off on the test plants was the equivalent of a rate of 500 g/ha.
The test suspension was sprayed to the point of run-off on creeping bent grass seedlings. The following day the seedlings were inoculated with a spore suspension of Rhizoctonia oryzae (the causal agent of turf brown patch) and incubated in a saturated atmosphere at 27° C. for 48 h, and then moved to a growth chamber at 27° C. for 3 days, after which time disease ratings were visually made.
(§2) Results for Tests A-H are given in Table A. In the table, a rating of 100 indicates 100% disease control and a rating of 0 indicates no disease control (relative to the controls). A dash (-) indicates no test results. All results are for compounds tested at 200 ppm except where the compound number is followed by “*” which indicates the compound was tested at 40 ppm.

Plasmopara viticola = assay: Test H: grape downy mildew, spray after inoculation of grape seedlings, visual disease rating; conditions: for pest or weed control at 200 ppm: Plasmopara viticola, 192 h
Text: as §1
Grape seedlings were inoculated with a spore suspension of Plasmopara viticola (the causal agent of grape downy mildew) and incubated in a saturated atmosphere at 20° C. for 24 h. After a short drying period, the test suspension was sprayed to the point of run-off on the grape seedlings, and then moved to a growth chamber at 20° C. for 6 days, after which time the test units were placed back into a saturated atmosphere at 20° C. for 24 h. Upon removal, disease ratings were visually made.
as §2

[3] = 200 ppm, 100 = 100% disease control, 0 = no control
[4] = 40 ppm (compound number followed by *)

| Compound | Test A rating (% disease control) [1, 3] | Test B rating (% disease control) [2, 3] | Test C rating (% disease control) (Septoria tritici; [3]) | Test D rating (% disease control) (Septoria nodorum; [3]) | Test E rating (% disease control) (Alternaria solani; [3]) | Test F rating (% disease control) (Botrytis cinerea; [3]) | Test G rating (% disease control) (Rhizoctonia oryzae; [3]) | Test H rating (% disease control) (Plasmopara viticola; [3]) | further results |
| --- | --- | --- | --- | --- | --- | --- | --- | --- | --- |
| COc1cc(OC)cc(-c2c(C(C)=O)cnc(C)c2-c2c(F)cc(F)cc2F)c1 [Compound 40, 1-[4-(3,5-dimethoxyphenyl)-6-methyl-5-(2,4,6-trifluorophenyl)-3-pyridinyl]ethanone] | – | – | – | – | – | – | – | – | pest or weed control at 200 ppm [1, 3]: 94%; pest or weed control at 200 ppm [2, 3]: 80%; pest or weed control at 200 ppm (Septoria tritici; [3]): 87%; pest or weed control at 200 ppm (Septoria nodorum; [3]): 0%; pest or weed control at 200 ppm (Alternaria solani; [3]): 97%; pest or weed control at 200 ppm (Botrytis cinerea; [3]): 90%; pest or weed control at 200 ppm (Rhizoctonia oryzae; [3]): 49%; pest or weed control at 200 ppm (Plasmopara viticola; [3]): 0% |
| COc1cc(OC)cc(-c2c(C(C)C)c[n+]([O-])c(C)c2-c2ccccc2)c1 [Compound 5] | 98% | 92% | 95% | 0% | 90% | 99% | 0% | 0% | – |
| COc1cc(OC)cc(-c2c(C(C)C)cnc(C)c2-c2ccc(F)cc2)c1 [Compound 19, 4-(3,5-dimethoxyphenyl)-3-(4-fluorophenyl)-2-methyl-5-(1-methylethyl)pyridine] | – | – | – | – | – | – | – | – | pest or weed control at 200 ppm [1, 3]: 99%; pest or weed control at 200 ppm [2, 3]: 99%; pest or weed control at 200 ppm (Septoria tritici; [3]): 100%; pest or weed control at 200 ppm (Septoria nodorum; [3]): 0%; pest or weed control at 200 ppm (Alternaria solani; [3]): 99%; pest or weed control at 200 ppm (Botrytis cinerea; [3]): 99%; pest or weed control at 200 ppm (Rhizoctonia oryzae; [3]): 99%; pest or weed control at 200 ppm (Plasmopara viticola; [3]): 0% |
| CCOC(=O)c1cnc(C)c(-c2ccccc2)c1-c1cc(OC)c(OC)c(OC)c1 [Compound 6] | 0% | 0% | 1% | 0% | 0% | 89% | 0% | 0% | – |
| CCOC(=O)c1cnc(C)c(-c2ccccc2)c1-c1cc(OC)ccc1Cl [Compound 7] | 97% | 74% | 52% | 0% | 0% | 98% | 97% | 0% | – |
| COc1cc(OC)cc(-c2c(-c3ccc(F)cc3F)cnc(C)c2-c2ccc(F)cc2)c1 [Compound 38] | 95% | 80% | 100% | 0% | 87% | 98% | 56% | 0% | – |
| COc1cc(OC)cc(-c2c(-c3ccccc3F)cnc(C)c2-c2ccc(F)cc2)c1 [Compound 35] | 99% | 100% | 99% | 99% | 99% | 99% | 99% | 0% | – |
| COc1cc(OC)cc(-c2c(-c3ccccc3F)c[n+]([O-])c(C)c2-c2ccc(F)cc2)c1 [Compound 39, 4-(3,5-dimethoxyphenyl)-5-(2-fluorophenyl)-3-(4-fluorophenyl)-2-methylpyridine 1-oxide] | – | – | – | – | – | – | – | – | pest or weed control at 200 ppm [1, 3]: 98%; pest or weed control at 200 ppm [2, 3]: 100%; pest or weed control at 200 ppm (Septoria tritici; [3]): 100%; pest or weed control at 200 ppm (Septoria nodorum; [3]): 100%; pest or weed control at 200 ppm (Alternaria solani; [3]): 100%; pest or weed control at 200 ppm (Botrytis cinerea; [3]): 94%; pest or weed control at 200 ppm (Rhizoctonia oryzae; [3]): 35%; pest or weed control at 200 ppm (Plasmopara viticola; [3]): 0% |
| COc1cc(OC)cc(-c2c(-c3ccccc3)c(C)[n+]([O-])c(C)c2-c2ccccc2F)c1 [Compound 24] | – | – | – | – | – | – | – | – | Test A rating (% disease control) [1, 4]: 91%; Test B rating (% disease control) [2, 4]: 95%; Test C rating (% disease control) (Septoria tritici; [4]): 97%; Test D rating (% disease control) (Septoria nodorum; [4]): 0%; Test E rating (% disease control) (Alternaria solani; [4]): 76%; Test F rating (% disease control) (Botrytis cinerea; [4]): 99%; Test G rating (% disease control) (Rhizoctonia oryzae; [4]): 0%; Test H rating (% disease control) (Plasmopara viticola; [4]): 0% |
| COc1cc(OC)cc(-c2c(-c3ccccc3)c(C)nc(C)c2-c2ccccc2F)c1 [Compound 23] | 62% | 80% | 83% | 0% | 0% | 99% | 0% | 0% | – |
| COc1cc(OC)cc(-c2c(C(=O)N(C)C)cnc(C)c2-c2ccccc2)c1 [Compound 10] | 96% | 0% | 33% | 0% | 8% | 80% | 0% | 0% | – |
| COc1cc(OC)cc(-c2c(-c3ccc(F)cc3)cnc(C)c2-c2ccccc2)c1 [Compound 36] | 65% | 0% | 93% | 0% | 30% | 94% | 14% | 0% | – |
| CCOC(=O)c1cnc(C)c(-c2ccccc2)c1-c1cc(F)cc(F)c1 [Compound 8] | 98% | 0% | 0% | 0% | 0% | 0% | 0% | 17% | – |
| CCOC(=O)c1cnc(CC)c(-c2ccccc2)c1-c1cc(OC)cc(OC)c1 [Compound 31] | 0% | 0% | 80% | 0% | 0% | 41% | 0% | 0% | – |
| COc1cc(OC)cc(-c2c(-c3ccccc3F)cnc(C)c2-c2ccccc2)c1 [Compound 32] | 98% | 96% | 99% | 0% | 59% | 99% | 99% | 0% | – |
| C=C(C)c1cnc(C)c(-c2ccc(F)cc2)c1-c1cc(OC)cc(OC)c1 [Compound 16, 4-(3,5-dimethoxyphenyl)-3-(4-fluorophenyl)-2-methyl-5-(1-methylethenyl)pyridine] | – | – | – | – | – | – | – | – | pest or weed control at 200 ppm [1, 3]: 99%; pest or weed control at 200 ppm [2, 3]: 100%; pest or weed control at 200 ppm (Septoria tritici; [3]): 100%; pest or weed control at 200 ppm (Septoria nodorum; [3]): 73%; pest or weed control at 200 ppm (Alternaria solani; [3]): 99%; pest or weed control at 200 ppm (Botrytis cinerea; [3]): 99%; pest or weed control at 200 ppm (Rhizoctonia oryzae; [3]): 99%; pest or weed control at 200 ppm (Plasmopara viticola; [3]): 0% |
